Values joined by “and” are separate entries in the source; they are usually repeats but may differ in a detail not shown here. Identical values can stand only once. “Also recorded” adds a separate entry of the source. Like-named read-outs stand apart in the source and are kept apart here.
How the values were obtained:
[1] = tested on: MitoTox Reporter cells (MDA-MB-231 expressing Laconic); experiment: Pilot screening of 13 compounds with MitoTox Reporter cells, multiplate reader; format: cell-based; details: for ΔR% variation / lactate accumulation over all concentrations tested: 1, 5, and 10 μM; for ΔR% (lactate accumulation): average of 4 replicate wells, Fig 9 legend 30 minutes, 37°C; for Concentration at which toxicity / mitochondrial effects were detected in the pilot screening: tested at 1, 5 and 10 μM
Description: (§1) MitoTox reporter cell line was cultured in Leibowitz media (Gibco) supplemented with 10% of fetal bovine serum (FBS) at 37°C at atmospheric CO2 levels in a 100 mm petri dish. Once cells reached 100% confluency, they were trypsinized using 5% trypsin (Gibco) and washed in PBS. Viability was determine using trypan blue staining and 10,000 cells were seeded into each well of a 96 well plate. Experiments in 96 well format were performed once cells reached 100% confluency after 6 days, during the incubation media was not replaced. All the plates with signal-to-noise ration below 1.3 for monomeric Teal Fluorescent Protein (mTFP) and Venus channels were discarded. Background signal was determined with KRH buffer without cells. Experiments consisted in washing out the culture media using KRH HEPES buffer containing (mM) 136 NaCl, 3 KCl, 1.25 CaCl2, 1.25 MgCl2, 10 HEPES/Tris and pH 7.2 at 37°C with 300 mOsm. Then 200 μl of KRH HEPES buffer without any carbon sources was added to each well and the baseline was measured (RMIN), then 100 μl of buffer was replaced with mitochondrial toxicant/controls and signal was measured to obtain a stimulated response (RMAX). In experiments were pCMBS was used to block lactate exit, the inhibitor was added simultaneously with the mitochondrial toxicants. Data was collected in triplicated after 5, 10, 30, and 60 minutes of incubation. All the experiments in 96 well plates were performed in an EnVision® multiplate reader (PerkinElmer). Each well was excited at 430 nm and the intensity of mTFP and Venus fluorescence emission were recorded at 485 nm and 528 nm, using a set of filters.
(§2) Where R(mTFP/Venus) min corresponded to the minimal change of mTFP/Venus ratio during the single-cell experiments. Results in 96 well plates experiments were expressed by the ΔR%. This parameter was obtained from the difference between the RMAX and RMIN from the same well (before-after experiment) as follow: ΔR%=(R(mTFP/Venus)max−R(mTFP/Venus)min/R(mTFP/Venus)min)x100
Multiple comparisons versus control groups (Holm-Sidak method), Overall significance level P < 0,05.
The capability of the assay to identify previously described toxic drugs was explored through a pilot screening assay. We selected 13 compounds from a variety of therapeutic classes to perform a pilot screening assay using MitoTox Reporter cells and a standard multiplate reader. […] To perform the assays, we prepared master stocks for each compound in 0.2% DMSO. Assays were performed with compounds at final concentrations of 1, 5, and 10 μM and the response of MitoTox Reporter cells were measured at 5, 10, 30, and 60 minutes. […] As a negative control we selected a compound with no reported side-effects.

[2] = tested on: mitochondrial membrane potential (MMP); details: cited from earlier work
oxygen consumption = tested on: oxygen consumption; set-up: method as in Hynes et al., 2013 [72]; details: treatment time 0.13 hours; ref Hynes et al., 2013 [72]; cited from earlier work
[3] = tested on: clonal MDA-MB-231 cells expressing Laconic; experiment: Single-cell lactate imaging of MitoTox Reporter cells; format: cell-based; details: 32 μM rotenone, 16 μM antimycin, 80 μM oligomycin, 10 μM myxothiazol
From the text: To generate a cell system with a high signal-to-noise ratio suitable for standard multiplate readers, we developed a clonal cell line with high levels and homogeneous Laconic expression. To do so, we produced a lentivirus particle to infect and transduce Laconic in MDA-MB-231 cells. From pooled cells with diverse levels of Laconic expression we selected high expression clones through FACS. […] We termed this cell line “MitoTox Reporter”. Exposure of these cells to classical mitochondrial poisons produced a robust increase in the fluorescent signal, indicating acute toxicity-induced lactate accumulation. […] With this evidence in hand, cells were tested in a multi-well plate reader.
Fig 3 Characterization of “MitoTox reporter” cell line. A) Confocal images from FACS selected clonal MDA-MB-231 cells expressing Laconic. Size bars for 20x and 60x represent 100 μm and 10 μm, respectively. Cytosolic lactate accumulation induced by treatment with: B) 32 μM rotenone, C) 16 μM of antimycin, D) 80 μM of oligomycin, and 10 μM myxothiazol. Each trace is the average of ten cells from one representative experiment.

[4] = tested on: reactive oxygen species (ROS); set-up: method as in Li et al., 2014 [50]; details: treatment time 6 hours; ref Li et al., 2014 [50]; cited from earlier work
HepG2 cells [5] = tested on: HepG2 cells; set-up: method as in Nadanaciva et al., 2012 [55]; details: treatment time 0.03 hours; ref Nadanaciva et al., 2012 [55]; cited from earlier work
[6] = tested on: primary culture of astrocytes from the mouse cortex expressing Laconic; experiment: Single-cell lactate imaging (Laconic) in primary culture of cortical astrocytes; format: cell-based; details: 32 μM rotenone, 16 μM antimycin, 5 mM azide, 80 μM oligomycin; buffer without carbon sources
Description: Animals used for primary cultures were mixed F1 male mice (C57BL/6J × CBA/J), kept in an animal room under SPF conditions at a room temperature of 20 ± 2°C, in a 12/12-h light/dark cycle and with free access to water and food. Mixed cortical cultures of neuronal and glia cells (1 –to 3-day-old neonates) was cultured in Neurobasal medium (Gibco) supplemented with 5 mM glucose and B27. Cells were seeded on petri dishes and superfused with KRH HEPES pH 7.4. The lactate imaging experiments with single-cell resolution were performed using cultured astrocytes at 11–14 days post-dissection. Real time experiments were performed with KRH HEPES bathing solution containing (in mM) 136 NaCl, 3 KCl, 1.25 CaCl2, 1.25 MgCl2, 10 HEPES/Tris and pH 7.2 at 36°C with 300 mOsm, without carbon sources for mitochondrial toxicant experiments and 2 mM glucose and 1 mM lactate for Warburg index determination. Experiments were performed in upright Olympus FV1000 confocal microscope equipped with a 20X water-immersion objective (numerical aperture, 1.0) and a 440 nm solid-state laser.
To plot the data, we used a ratio between mTFP and Venus channels. This ratio is proportional to lactate levels, since its binding to the sensor produced a decrease in FRET efficiency. This ratio was expressed in two formulas described below: NormalizedΔR=R(mTFP/Venus)/R(mTFP/Venus)min
With the aim of testing if this observation occurs in general and if azide induced-lactate accumulation can be reproduced using another mitochondrial toxicant with a different molecular target, we performed single-cell experiments exposing primary culture of astrocytes from the mouse cortex expressing Laconic (Fig 1A) to different mitochondria inhibitors that block the ETC at different levels (Fig 1C). To take advantage of the maximal dynamic range of the lactate FRET sensor the baseline measurements were performed using buffer without carbon sources to force start the experiments with lactate levels below 100 μM.
Each data point is from an average of ten cells from three independent experiments.

[7] = tested on: extracellular acidification; set-up: method as in Hynes et al., 2013 [72]; details: treatment time 0.13 hours; ref Hynes et al., 2013 [72]; cited from earlier work
HepG2 cells [8] = tested on: HepG2 cells; set-up: method as in Nadanaciva et al., 2012 [55]; details: treatment time 0.03 hours; ref Nadanaciva et al., 2012 [55]; cited from earlier work; remark: listed apart in the source
HepG2 cells [9] = tested on: HepG2 cells; set-up: method as in Marroquin et al., 2007 [35]; details: treatment time 24 hours; approximated IC50 directly from plotted data in the original paper; ref Marroquin et al., 2007 [35]; cited from earlier work
cell viability = tested on: cell viability; set-up: method as in Li et al., 2014 [50]; details: treatment time 6 hours; ref Li et al., 2014 [50]; cited from earlier work
glutathione (GSH) = tested on: glutathione (GSH); set-up: method as in Li et al., 2014 [50]; details: treatment time 6 hours; ref Li et al., 2014 [50]; cited from earlier work
[10] = tested on: MDA-MB-231 cells stably expressing the FRET lactate indicator Laconic (MitoTox Reporter); experiment: MitoToxy assay: toxicity-induced lactate accumulation in MitoTox Reporter cells, 96-well plate reader, with 50 μM pCMBS; format: cell-based
Description: as §1, §2

HepG2 cells [11] = tested on: HepG2 cells; set-up: method as in PMID 22689143; details: cited from earlier work
[12] = treatment time 6 hours, ref Li et al., 2014 [50], read-out: IC50, MMP
[13] = dose-response, treatment time 0.5 hours (Fig 8 legend: 10 minutes), 37°C, read-out: IC50 (toxicity-induced lactate accumulation, MitoToxy)

Molecule: CCC(C)(C)C(=O)O[C@H]1C[C@@H](C)C=C2C=C[C@H](C)[C@H](CC[C@@H]3C[C@@H](O)CC(=O)O3)[C@H]21 [simvastatin]
- ΔR% variation / lactate accumulation over all concentrations tested [1]: None of these molecules produced an important ΔR% variation
- IC50 [2, 12]: 63.2 µM

Molecule: CC(C)C(=O)Nc1ccc([N+](=O)[O-])c(C(F)(F)F)c1 [flutamide]
- ΔR% (lactate accumulation) ([1]; 10 μM): 8.71 ± 2.06%
- Concentration at which toxicity / mitochondrial effects were detected in the pilot screening [1]: 10 µM

Molecule: CC[C@H]1/C=C/C=C/C[C@@H](C)[C@H](O)[C@@](C)(O)C(=O)[C@@H](C)[C@H](O)[C@@H](C)C(=O)[C@@H](C)[C@H](O)[C@@H](C)/C=C/C(=O)O[C@@H]2[C@H](C)[C@H](CC1)O[C@]1(CC[C@H](C)[C@H](C[C@@H](C)O)O1)[C@H]2C [oligomycin]
- IC50 (oxygen consumption): 0.038 µM
- Intracellular lactate levels in MitoTox Reporter cells (single-cell) [3]: acute, fast, and robust increase of intracellular lactate levels
- IC50 [4]: > 1000 µM
- IC50 (HepG2 cells [5]): 0.92 µM
- Cytosolic lactate accumulation in astrocytes [6]: induced an acute cytosolic lactate accumulation
- IC50 [7]: 0.077 µM
- IC50 [2, 12]: 15.6 µM
- IC50 (HepG2 cells [8]): 1.1 µM
- IC50 (HepG2 cells [9]): 0.005 µM
- IC50 (cell viability): 182 µM
- IC50 (glutathione (GSH)): 161 µM
- IC50 ([10]; Homo sapiens, MDA-MB-231, dose-response, treatment time 0.5 hours (Fig 8 legend: 10 minutes), 37°C, read-out: IC50 (toxicity-induced lactate accumulation, MitoToxy)): 0.038 µM

Molecule: CC(C)(C)c1ccc(C(O)CCCN2CCC(C(O)(c3ccccc3)c3ccccc3)CC2)cc1 (stereo not shown) [terfenadine]
- ΔR% (lactate accumulation) ([1]; 1 μM): without any measurable effects
- ΔR% (lactate accumulation) ([1]; 5 μM): without any measurable effects
- ΔR% (lactate accumulation) ([1]; 10 μM): 15.64 ± 1.32%
- Concentration at which toxicity / mitochondrial effects were detected in the pilot screening [1]: 10 µM
- IC50 ([2]; unit inferred, read-out: IC50, MMP measurements): 4.4 µM

Molecule: CN(C)C(=N)N=C(N)N [metformin]
- ΔR% variation / lactate accumulation over all concentrations tested [1]: None of these molecules produced an important ΔR% variation; also recorded: did not induce intra-cellular lactate accumulation

Molecule: COc1cc2nc(N3CCN(C(=O)c4ccco4)CC3)nc(N)c2cc1OC [prazosin]
- ΔR% variation / lactate accumulation over all concentrations tested [1]: None of these molecules produced an important ΔR% variation
- IC50 [2, 12]: 6.3 µM

Molecule: CO/C(=C/C(N)=O)[C@H](C)[C@H](/C=C/c1csc(-c2csc([C@@H](C)/C=C/C=C/C(C)C)n2)n1)OC [myxothiazol]
- Intracellular lactate levels in MitoTox Reporter cells (single-cell) [3]: acute, fast, and robust increase of intracellular lactate levels
- IC50 [4]: 3.3 µM
- IC50 [2, 12]: 1.2 µM
- IC50 (cell viability): 183 µM
- IC50 (glutathione (GSH)): > 1000 µM
- IC50 [10, 13]: 1.2 µM

Molecule: CN(CCOc1ccc(CC2SC(=O)NC2=O)cc1)c1ccccn1 (stereo not shown) [rosiglitazone]
- Effect on OCR and ECAR (HepG2 cells [11]; between 0.13 and 100 μM): no effects were detected
- ΔR% (lactate accumulation) ([1]; 10 μM): over 14%
- Concentration at which toxicity / mitochondrial effects were detected in the pilot screening [1]: 5 µM
- IC50 [2, 12]: > 1000 µM

Molecule: C=C(C)[C@H]1Cc2c(ccc3c2O[C@@H]2COc4cc(OC)c(OC)cc4[C@@H]2C3=O)O1 [rotenone]
- IC50 (oxygen consumption): 0.02 µM
- Intracellular lactate levels in MitoTox Reporter cells (single-cell) [3]: acute, fast, and robust increase of intracellular lactate levels
- IC50 [4]: 10.5 µM
- IC50 (HepG2 cells [5]): 0.263 µM
- Cytosolic lactate accumulation in astrocytes [6]: induced an acute cytosolic lactate accumulation
- IC50 [7]: 0.002 µM
- IC50 [2, 12]: 20.3 µM
- IC50 (HepG2 cells [8]): 0.371 µM
- IC50 (HepG2 cells [9]): 0.05 µM
- IC50 (cell viability): > 1000 µM
- IC50 (glutathione (GSH)): 518 µM
- IC50 ([10]; Homo sapiens, MDA-MB-231, read-out: IC50 (toxicity-induced lactate accumulation)): 0.0027 ± 0.00141 µM
- IC50 ([10]; Homo sapiens, MDA-MB-231, read-out: IC50 (toxicity-induced lactate accumulation, MitoToxy)): 0.0025 µM

Molecule: CC[C@@]1(O)C(=O)OCc2c1cc1n(c2=O)Cc2cc3ccccc3nc2-1 [camptothecin]
- ΔR% (lactate accumulation) ([1]; 1 μM): no change in ΔR% was detected
- ΔR% (lactate accumulation) ([1]; 5 μM): potent effect and 13.52 ± 3.6%
- ΔR% (lactate accumulation) ([1]; 10 μM): 49.18 ± 7.4%
- Cytosolic lactate accumulation (concentration) ([1]; 10 μM, inferred from the reported dynamic range and sensitivity of Laconic): over 10 mM
- Concentration at which toxicity / mitochondrial effects were detected in the pilot screening [1]: 5 µM
- IC50 [2, 12]: 206 µM

Molecule: CC1(C)NC(=O)N(c2ccc([N+](=O)[O-])c(C(F)(F)F)c2)C1=O [nilutamide]
- ΔR% variation / lactate accumulation over all concentrations tested [1]: did not produce ΔR% changes at all the concentrations tested
- ΔR% variation / lactate accumulation over all concentrations tested ([1]; listed as nilutamine): did not produce any effect

Molecule: antimycin
- IC50 (oxygen consumption): 0.039 µM
- Intracellular lactate levels in MitoTox Reporter cells (single-cell) [3]: acute, fast, and robust increase of intracellular lactate levels
- IC50 [4]: 17.7 µM
- IC50 (HepG2 cells [5]): 0.004 µM
- Cytosolic lactate accumulation in astrocytes [6]: induced an acute cytosolic lactate accumulation
- IC50 [7]: 0.074 µM
- IC50 [2, 12]: 2.1 µM
- IC50 (HepG2 cells [8]): 0.1 µM
- IC50 (HepG2 cells [9]): 0.006 µM
- IC50 (cell viability): 291 µM
- IC50 (glutathione (GSH)): 228 µM
- IC50 [10, 13]: 0.00024 µM

Molecule: CC(=O)Oc1ccccc1C(=O)O [aspirin, acetylsalicylic acid]
- ΔR% variation / lactate accumulation over all concentrations tested [1]: None of these molecules produced an important ΔR% variation; also recorded: did not induce intra-cellular lactate accumulation

Molecule: CC1(COc2ccc(CC3SC(=O)NC3=O)cc2)CCCCC1 (stereo not shown) [ciglitazone]
- EC50 (HepG2 cells [11]; Seahorse technology, read-out: Concentration required to change the OCR and ECAR by 50%): > 100 µM
- ΔR% (lactate accumulation) ([1]; 10 μM): over 14%
- Concentration at which toxicity / mitochondrial effects were detected in the pilot screening [1]: 5 µM
- IC50 [2, 12]: 136 µM

Molecule: COc1cc([C@@H]2c3cc4c(cc3[C@@H](O[C@@H]3O[C@@H]5CO[C@@H](C)O[C@H]5[C@H](O)[C@H]3O)[C@H]3COC(=O)[C@H]23)OCO4)cc(OC)c1O [etoposide]
- ΔR% variation / lactate accumulation over all concentrations tested [1]: None of these molecules produced an important ΔR% variation; also recorded: did not induce intra-cellular lactate accumulation
